Data from patent US11845774B2, “Sterol derivatives and preparation method and uses thereof” (BEIJING PEKING UNIVERSITY WBL BIOTECH CO., LTD., priority 2011, dated 2023).

Tests used:
[1] = tested on: mice sarcoma cell line S180; test: MTT test of inhibiting cancer cells, S180; type: cell-based; conditions: 72 hours, FIG. 4, concentration-effect relationship
Experimental: (§1) Cancer cells of exponential growth phase were inoculated on 96-well plate, 2×10^4 cells/well, added with drug until final drug concentrations were: 500, 250, 125, 62.5, 31.25, 15.625 and 7.8125 μg/mL, cultured at 37° C. in 5% CO2 cell culture incubator for 72 hours, then added with MTT, 10 μL/well, incubated in dark at 37° C. for 4 hours, culture medium was removed, 150 μL of DMSO or acidified isopropanol was added, vibrated for 5 minutes, and then OD values were measured under wavelength of 570 nm. This was repeated for 3 times, and a blank control was set. These cell strains used the same culture medium, i.e., RPMI1640 culture medium containing 10% fetal bovine serum and 1% double antibody (penicillin and steptomycin).
(§2) Calculation Formula: Cell survival rate=(OD value of test group/OD value of control group)×100%.

mice lymphoma cell YAC-1 = test: MTT test of inhibiting cancer cells, YAC-1; type: cell-based; conditions: Mus musculus, 72 hours, FIG. 5, read-out: IC50 value, growth of YAC-1
Experimental: as §1, §2

[2] = tested on: human mononuclear lymphoma cell THP1; test: MTT test of inhibiting cancer cells, THP1; type: cell-based; conditions: THP-1, 72 hours, FIG. 6, read-out: IC50 value, growth of THP1
Experimental: as §1, §2

[3] = tested on: human tissue lymphoma cell U937; test: MTT test of inhibiting cancer cells, U937; type: cell-based; conditions: U-937, 72 hours, FIG. 7, read-out: IC50 value, growth of U937
Experimental: as §1, §2

[4] = tested on: mice melanoma cell B16-F10; test: MTT test of inhibiting cancer cells, B16-F10; type: cell-based; conditions: Mus musculus, 72 hours, FIG. 8, read-out: IC50 value, growth of B16-F10
Experimental: as §1, §2

[5] = target: T1, Porcine pancreatic lipase (Sus scrofa, UniProt P00591); test: Test of activity of inhibiting lipase (copper oleate colorimetry, olive oil substrate); type: biochemical, pig; conditions: for Absorbance: 714 nm, blank control 0.6680; for Enzyme activity: blank control 1.69; for Concentration of generated oleic acid: blank control 2.75
T1 construct: purchased Sigma
T1 sequence (P00591 1-450): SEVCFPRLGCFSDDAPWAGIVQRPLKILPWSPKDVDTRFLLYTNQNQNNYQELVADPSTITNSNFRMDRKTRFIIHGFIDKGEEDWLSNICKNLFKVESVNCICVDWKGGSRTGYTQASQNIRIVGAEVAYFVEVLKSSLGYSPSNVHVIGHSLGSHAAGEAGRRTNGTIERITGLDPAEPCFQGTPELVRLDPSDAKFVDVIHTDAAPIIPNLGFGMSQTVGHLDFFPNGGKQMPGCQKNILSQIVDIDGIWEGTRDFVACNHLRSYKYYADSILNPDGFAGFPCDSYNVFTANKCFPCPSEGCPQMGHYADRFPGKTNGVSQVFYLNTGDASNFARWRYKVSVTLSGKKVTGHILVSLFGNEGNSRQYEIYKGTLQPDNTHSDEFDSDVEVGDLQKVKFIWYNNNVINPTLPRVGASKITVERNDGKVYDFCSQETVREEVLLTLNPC
Experimental: 2.1 Preparation of light absorbance working curve for fatty acid: a series of oleic acid-toluene solutions with different concentrations (0-3.5 mmol/L, separately being 0, 0.225, 0.45, 0.675, 0.9, 1.125, 1.35, 1.8, 2.25, 2.7, and 3.5 mmol/L), 4 mL of each was taken and placed in conical flask, added with 1 mL of color developing agent, stirred with magnetic force for 3 minutes, oleic acid molecules and copper ions formed a green complex compound, after centrifugation, organic phase of upper layer was taken and measured at 714 nm to determine light absorbance.
2.2 Enzyme solution was 0.5 mg/mL pancreatic lipase solution; buffer solution was 0.07M NaH2PO4—K2HPO4 phosphate buffer solution (pH 7.0); color developing agent was 5% copper acetate solution, which was regulated with pyridine to have pH 6.1.
3 mL of 0.07M phosphate buffer solution and 1 mL of olive oil were pre-heated at a constant temperature of 37° C. for 5 minutes in water bath under agitation with a magnetic stirrer, added with 1.3 mL of enzyme solution (negative control was that without enzyme inhibitor; positive control is that added with 100 μL of 0.1 mg/mL orlistat solution; […]), stirred with magnetic force for 10 minutes, immediately added with 8 mL of toluene, stirred continuously for 2 minutes, the reaction was terminated, the generated oleic acid was extracted. The solutions were transferred to centrifuge tube, centrifuged under 4000 rpm for 10 minutes, and the organic phase and water phase were layered and clarified. 4 mL of the upper layer organic phase was taken and placed in a small conical flask, added with 1 mL of color developing agent, stirred with magnetic stirrer for 3 minutes, the generated oleic acid reacted with copper ions to form green complex compound. After centrifugation under 4000 rpm for 10 minutes, the upper layer of toluene solution containing copper oleate was taken, and measured with a spectrophotometer at 714 nm to determine its light absorbance. A blank solution without lipase was prepared as control by the same method, and concentration of fatty acid could be determined by referring to light absorbance working curve of oleic acid.
Enzyme activity unit of lipase was defined as follows: an enzyme amount to release 1 μmol fatty acid under certain condition was defined as 1 unit of lipase activity (U).
The following formula was used to calculate enzyme activity: X=(cV)/(tV′)
wherein: X represents enzyme activity of lipase, U/mL; c represents concentration of fatty acid, […]; V represents volume of fatty acid solution, mL; V′ represents amount of enzyme solution, mL; t represents action time, minute. Inhibition rate=[(enzyme activity of lipase−enzyme activity of lipase after inhibition)/enzyme activity of lipase]×100%

[6] = final concentration of inhibitor in the system 111 μg/mL
[7] = final concentration of inhibitor in the system 166 μg/mL
[8] = final concentration of inhibitor in the system 203 μg/mL
[9] = final concentration of inhibitor in the system 240 μg/mL
[10] = final concentration of inhibitor in the system 333 μg/mL

SMILES: C[C@@H](C(O)C1OC2C[C@H]3C4=CC=C5CC(O)CC[C@]5(C)[C@H]4CC[C@]3(C)[C@H]2[C@@]1(C)O)C(C)(C)O (some centres unmarked) [Compound of Formula II, 16,22-epoxy-ergosta-5,7-dien-3,20,23,25-tetraol]
- inhibition effect on growth of S180 (in words) [1]: inhibition effect
- IC50 (mice lymphoma cell YAC-1): ~62.5 µg/mL
- IC50 [2]: ~250 µg/mL
- IC50 [3]: ~50 µg/mL
- IC50 [4]: ~62.5 µg/mL
- Absorbance [5, 6]: 0.5665
- Absorbance [5, 7]: 0.5035
- Absorbance [5, 8]: 0.3998
- Absorbance [5, 9]: 0.2743
- Absorbance [5, 10]: 0.2611
- Inhibition rate [5, 6]: 15.38%
- Enzyme activity [5, 6]: 1.43 U/mL
- Concentration of generated oleic acid [5, 6]: 2.32 mM
- Inhibition rate [5, 7]: 24.85%
- Enzyme activity [5, 7]: 1.27 U/mL
- Concentration of generated oleic acid [5, 7]: 2.06 mM
- Inhibition rate [5, 8]: 40.83%
- Enzyme activity [5, 8]: 1.00 U/mL
- Concentration of generated oleic acid [5, 8]: 1.63 mM
- Inhibition rate [5, 9]: 59.76%
- Enzyme activity [5, 9]: 0.68 U/mL
- Concentration of generated oleic acid [5, 9]: 1.10 mM
- Inhibition rate [5, 10]: 62.13%
- Enzyme activity [5, 10]: 0.64 U/mL
- Concentration of generated oleic acid [5, 10]: 1.04 mM
- IC50 ([5]; read-out: IC50 value, inhibition of activity of lipase (converted)): ~478 µM
